“And” between values parts separate entries of the source, which are not always exact repeats. Equal entries are not always repeated. “Also recorded” adds a separate entry of the source.
Columns and labels:
Format in all cases: in vivo
[1] = tested on: mouse colon cancer cells MC38-hPDL1; test: Combined use of Cisplatin with Keytruda or Tecentriq (Example 11), MC38-hPDL1 tumors in B-hPD-1 mice; conditions: for Tumor volume Day 8: Day 8, group division, Cisplatin 10 mg/kg intravenous once, Keytruda 0.1 mg/kg i.p. once per 3 days x6, Tecentriq 1 mg/kg i.p. once per 2 days x8; for Tumor volume Day 18 / Tumor volume Day 25: doses as Table 9 (Cisplatin 10, Keytruda 0.1, Tecentriq 1 mg/kg); for Tumor volume Day 25: Day 25, end-point; for Tumor free situation: end-point; for weight change compared among groups: mouse, in vivo
Procedure: B-hPD-1 homozygous mice (4-6 weeks old) were taken, 5×10^5 mouse colon cancer cells MC38-hPDL1 were subcutaneously inoculated at right side (the same as Example 10). When the tumor volume was about 100 mm^3, the mice were randomly divided into 6 control groups or treatment groups (n=7/group). For the treatment group, one or two of the above 3 drugs were randomly injected, the dosages were 0.1-10 mg/kg, and a blank solvent was injected for the control group. The tumor volume was measured and the mice were weighed twice a week. Moreover, euthanasia was performed when the tumor volume of a single mouse reached 3000 mm^3.

[2] = tested on: mouse colon cancer cells MC38; test: Keytruda antibody efficacy pre-experiment (Example 10, Experiment 1), MC38 tumors in B-hPD-1 mice
Procedure: (§1) B-hPD-1 homozygous mice (4-6 weeks old) were taken, mouse colon cancer cells MC38 or modified MC38-hPDL1 (i.e., PD-L1 gene humanized MC38 cells) were subcutaneously inoculated. When the tumor volume was about 100 mm^3, the mice were randomly divided into a control group or a treatment group. For the treatment group, one of the above 2 antibodies was randomly selected and administered at different dosages (0.3-25 mg/kg), and the same volume of a blank solvent was injected for the control group. The tumor volume was measured twice a week and the body weight were measured for each mouse. Moreover, euthanasia was performed when the tumor volume of a single mouse reached 3000 mm^3. The specific experiment scheme was as follows:
Experiment 1 Keytruda antibody efficacy pre-experiment (n=6/group): after subcutaneous inoculation of MC38 cells to mice (5×10^5/100 μL PBS), the anti-human PD-1 antibody Keytruda was administered to the treatment group at 25 mg/kg through intraperitoneal injection, and the same volume of a blank solvent was injected for the control group; the administration frequency was one administration per 3 days for a total of 6 administrations;

[3] = tested on: mouse colon cancer cells MC38; test: Keytruda antibody efficacy at different dosages (Example 10, Experiment 2), MC38 tumors in B-hPD-1 mice; conditions: for Tumor volume Day 8: once per 3 days x6, Day 8, group division; for Tumor volume Day 32: Day 32, end-point; for Survival situation / Tumor free situation: end-point
Procedure: as §1
Experiment 2 Keytruda antibody efficacy experiments at different dosages: after subcutaneous inoculation of MC38 cells to mice (5×10^5/100 μL PBS), the anti-human PD-1 antibody Keytruda was administered to the treatment group (n=6/group) through intraperitoneal injection at different dosages (0.3-10 mg/kg), and the same volume of a blank solvent was injected for the control group (n=10/group); the administration frequency was one administration per 3 days for a total of 6 administrations;

[4] = tested on: modified mouse colon cancer cells MC38-hPDL1; test: Tecentriq antibody efficacy pre-experiment (Example 10, Experiment 3), MC38-hPDL1 tumors in B-hPD-1 mice
Procedure: as §1
Experiment 3 Tecentriq antibody efficacy pre-experiment (n=7/group): subcutaneous inoculation of MC38-PDL1 (5×10^5/100 μL PBS), the […] Tecentriq was administered to the treatment group at 3 mg/kg through intraperitoneal injection, and the same volume of a blank solvent was injected for the control group; the administration frequency was one administration per week for a total of 2 weeks;

[5] = tested on: mouse colon cancer cells MC38-hPDL1; test: Screening anti-human PD-L1 antibodies (Example 12, Experiment 1), MC38-hPDL1 tumors in B-hPD-1 mice
Procedure: Experiment 1: B-hPD-1 homozygous mice (4-6 weeks old) were taken, 5×10^5 mouse colon cancer cells MC38-hPDL1 were subcutaneously inoculated at right side (the same as Example 10). When the tumor volume was about 100 mm^3, the mice were randomly divided into the control group or treatment groups (n=5/group). For the treatment group, the positive control Tecentriq or one of two anti-human PD-L1 antibodies was randomly selected, all dosages were 3 mg/kg, and a blank solvent was injected for the control group. The administration manner was intraperitoneal injection, once per 2 days for a total of 8 times. The tumor volume was measured twice a week. Moreover, euthanasia was performed when the tumor volume of a single mouse reached 3000 mm^3.

[6] = tested on: modified mouse colon cancer cells MC38-hPDL1; test: Tecentriq antibody efficacy at different dosages (Example 10, Experiment 4), MC38-hPDL1 tumors in B-hPD-1 mice; conditions: for Tumor volume Day 8: once per 2 days x8, Day 8, group division; for Tumor volume Day 33: Day 33, end-point; for Survival situation / Tumor free situation: end-point
Procedure: as §1
Experiment 4 Tecentriq antibody efficacy experiments at different dosages (n=5/group): subcutaneous inoculation of MC38-PDL1 (2×10^5/100 μL PBS), the […] Tecentriq was administered to the treatment group through intraperitoneal injection at 1-10 mg/kg, and the same volume of a blank solvent was injected for the control group; the administration frequency was one administration per 2 days for a total of 8 administrations;

With N.N.[Cl][Pt][Cl] [Cisplatin] the “Tumor volume Day 8” value [1] was 98 ± 24 mm^3, the “Tumor volume Day 18” value [1] was 401 ± 249 mm^3 and the “Tumor volume Day 25” value [1] was 612±510 mm^3. The TGITV % ([1]; doses as Table 9) was 68.2%, the “tumor volume compared with control or single-drug groups” value ([1]; doses as Table 9, in words) was “has certain tumor inhibitory effect” and the Tumor free situation ([1]; doses as Table 9) was 0/5. For the same molecule, the “weight change compared among groups” value [1] was “no significant difference in average weight increase” and the mice died ([1]; n=7/group, by experiment end-point) was 2.
With “Keytruda: humanized monoclonal antibody from Merck & Co.; human PD-1 antibody” the “Tumor volume Day 6” value ([2]; 25 mg/kg intraperitoneal, once per 3 days, 6 administrations, Day 6, group division) was 169 ± 24 mm3, the “Tumor volume Day 18” value ([2]; 25 mg/kg intraperitoneal, once per 3 days, 6 administrations, Day 18) was 302 ± 86 mm3 and the “Tumor volume Day 26” value ([2]; 25 mg/kg intraperitoneal, once per 3 days, 6 administrations, Day 26, end-point) was 111±77 mm3. The TGITV % ([2]; 25 mg/kg, Tumor Growth Inhibition Value) was 102%, the Survival situation ([2]; 25 mg/kg, end-point Day 26) was 100% and the Tumor free situation ([2]; 25 mg/kg, end-point Day 26, tumor-free mice/mice) was 2 of the 6 and 2/6. For the same molecule, the “average tumor volume compared with control group” value ([2]; 25 mg/kg, in words) was “tumor volume obviously smaller than that of the control group; also recorded: obviously smaller than that of the G1 control group”, the “toxicity on the animals” value ([2]; 25 mg/kg, in words) was “does not have obvious toxicity on the animals” and the “Tumor volume Day 8” value [1] was 98 ± 30 mm^3. For the same molecule, the “Tumor volume Day 18” value [1] was 606 ± 247 mm^3, the “Tumor volume Day 25” value [1] was 1267±619 mm^3 and the TGITV % ([1]; doses as Table 9) was 27.7%. The Tumor free situation ([1]; doses as Table 9) was 0/7, the “weight change compared among groups” value [1] was “no significant difference in average weight increase” and the TGITV % ([3]; 0.3 mg/kg) was 78.2%. For the same molecule, the “Tumor volume Day 8” value ([3]; 0.3 mg/kg i.p.) was 113 ± 28 mm^3, the “Tumor volume Day 22” value ([3]; 0.3 mg/kg) was 115 ± 116 mm^3 and the “Tumor volume Day 32” value ([3]; 0.3 mg/kg) was 437±515 mm^3. For the same molecule, the Survival situation ([3]; 0.3 mg/kg) was 6/6, the Tumor free situation ([3]; 0.3 mg/kg) was 1/6 and the TGITV % ([3]; 1 mg/kg) was 94.0%. The “Tumor volume Day 8” value ([3]; 1 mg/kg i.p.) was 112 ± 27 mm^3, the “Tumor volume Day 22” value ([3]; 1 mg/kg) was 89 ± 86 mm^3 and the “Tumor volume Day 32” value ([3]; 1 mg/kg) was 201±186 mm^3. For the same molecule, the Survival situation ([3]; 1 mg/kg) was 6/6, the Tumor free situation ([3]; 1 mg/kg) was 2/6 and the TGITV % ([3]; 3 mg/kg) was 89.0%. For the same molecule, the “Tumor volume Day 8” value ([3]; 3 mg/kg i.p.) was 113 ± 25 mm^3, the “Tumor volume Day 22” value ([3]; 3 mg/kg) was 88 ± 94 mm^3 and the “Tumor volume Day 32” value ([3]; 3 mg/kg) was 277±397 mm^3. For the same molecule, the Survival situation ([3]; 3 mg/kg) was 6/6, the Tumor free situation ([3]; 3 mg/kg) was 2/6 and the TGITV % ([3]; 10 mg/kg) was 92.4%. The “Tumor volume Day 8” value ([3]; 10 mg/kg i.p.) was 110 ± 28 mm^3, the “Tumor volume Day 22” value ([3]; 10 mg/kg) was 117 ± 111 mm^3 and the “Tumor volume Day 32” value ([3]; 10 mg/kg) was 223±270 mm^3. The Survival situation ([3]; 10 mg/kg) was 6/6, the Tumor free situation ([3]; 10 mg/kg) was 2/6 and the “average tumor volume compared with control group” value ([3]; 0.3, 1, 3 and 10 mg/kg, in words) was “tumor volume obviously smaller than that of the control group; also recorded: obviously smaller than that of the G1 control group”.
With “Tecentriq: fully humanized monoclonal antibody from Genentech under Roche; human PD-L1 antibody” the TGITV % ([4]; 3 mg/kg) was 79.7%, the “Tumor volume Day 6” value ([4]; 3 mg/kg intraperitoneal, once per week, 2 weeks, Day 6, group division) was 88 ± 8 mm3 and the “Tumor volume Day 17” value ([4]; 3 mg/kg, Day 17) was 208 ± 72 mm3. The “Tumor volume Day 20” value ([4]; 3 mg/kg, Day 20, end-point) was 237±89 mm3, the Survival situation ([4]; 3 mg/kg, end-point) was 7/7 and the Tumor free situation ([4]; 3 mg/kg, end-point) was “no mouse cured in the treatment group and 0/7”. For the same molecule, the “average tumor volume compared with control group” value ([4]; 3 mg/kg, in words) was “tumor volume obviously smaller than that of the control group”, the “toxicity on the animals” value ([4]; 3 mg/kg, in words) was “does not have obvious toxicity on the animals” and the TGITV % ([5]; 3 mg/kg) was 112.2%. The “Tumor volume Day 10” value ([5]; 3 mg/kg i.p., once per 2 days x8, Day 10, group division) was 111 ± 25 mm^3, the “tumor volume / therapeutic effect compared with control and Tecentriq” value ([5]; 3 mg/kg, same dosage and frequency, in words) was “significant difference in the volume of tumors between G2 or G3 and the control group (G1)” and the “Tumor volume Day 20” value ([5]; 3 mg/kg, Day 20) was 60 ± 70 mm^3. The “Tumor volume Day 27” value ([5]; 3 mg/kg, Day 27, end-point) was 75±113 mm^3, the Survival situation ([5]; 3 mg/kg, end-point) was 5/5 and the Tumor free situation ([5]; 3 mg/kg, end-point) was 0/5. For the same molecule, the “animal weight / tolerance compared with control group” value ([5]; 3 mg/kg, in words) was “no significant difference in average weight increase”, the TGITV % ([6]; 1 mg/kg) was 61.2% and the “Tumor volume Day 8” value ([6]; 1 mg/kg i.p.) was 144 ± 31 mm^3. The “Tumor volume Day 22” value ([6]; 1 mg/kg) was 506 ± 289 mm^3, the “Tumor volume Day 33” value ([6]; 1 mg/kg) was 1044±432 mm^3 and the Survival situation ([6]; 1 mg/kg) was 5/5. The Tumor free situation ([6]; 1 mg/kg) was 0/5, the TGITV % ([6]; 3 mg/kg) was 93.7% and the “Tumor volume Day 8” value ([6]; 3 mg/kg i.p.) was 147 ± 38 mm^3. The “Tumor volume Day 22” value ([6]; 3 mg/kg) was 418 ± 268 mm^3, the “Tumor volume Day 33” value ([6]; 3 mg/kg) was 1028±963 mm^3 and the Survival situation ([6]; 3 mg/kg) was 5/5. For the same molecule, the Tumor free situation ([6]; 3 mg/kg) was 0/5, the TGITV % ([6]; 10 mg/kg) was 97.2% and the “Tumor volume Day 8” value ([6]; 10 mg/kg i.p.) was 153 ± 62 mm^3. The “Tumor volume Day 22” value ([6]; 10 mg/kg) was 68 ± 75 mm^3, the “Tumor volume Day 33” value ([6]; 10 mg/kg) was 219±326 mm^3 and the Survival situation ([6]; 10 mg/kg) was 5/5. The Tumor free situation ([6]; 10 mg/kg) was 3/5, the “average tumor volume compared with control group” value ([6]; 1-10 mg/kg, in words) was “tumor volume obviously smaller than that of the control group; also recorded: obviously smaller than that of the G1 control group” and the “Tumor volume Day 8” value [1] was 98 ± 26 mm^3. For the same molecule, the “Tumor volume Day 18” value [1] was 688 ± 409 mm^3, the “Tumor volume Day 25” value [1] was 1234±977 mm^3 and the TGITV % ([1]; doses as Table 9) was 29.8%. For the same molecule, the Tumor free situation ([1]; doses as Table 9) was 0/7 and the “weight change compared among groups” value [1] was “no significant difference in average weight increase”.
